Results on eight molecules are retold here after patent US7902356B2, “Thiazolopyridinone derivates as MCH receptor antagonists” (Eli Lilly and Company, priority 2004, dated 2011).

Structures can show the parent of a compound that is named as a salt.

In one assay the target is T1, human MCHR1 (Homo sapiens, UniProt Q99705).
T1 construct: The full-length cDNA for human MCHR1 was cloned; expressed in transfected cells; host or cells: AV12 cells previously transfected with Galpha15
T1 sequence (Q99705 whole entry): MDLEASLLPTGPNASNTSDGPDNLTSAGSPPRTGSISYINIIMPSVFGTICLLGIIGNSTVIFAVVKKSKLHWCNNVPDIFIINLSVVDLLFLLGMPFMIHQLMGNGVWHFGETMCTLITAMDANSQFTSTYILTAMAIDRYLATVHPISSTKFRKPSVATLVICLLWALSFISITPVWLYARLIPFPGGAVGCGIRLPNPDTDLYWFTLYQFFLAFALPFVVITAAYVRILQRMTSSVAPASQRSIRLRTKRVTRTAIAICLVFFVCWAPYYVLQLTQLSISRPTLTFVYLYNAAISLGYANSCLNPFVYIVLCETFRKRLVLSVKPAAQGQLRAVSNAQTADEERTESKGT
Description: 125I-MCH competitive binding assay with clone 43 membranes (SPA). The settings on record: 125I-MCH binding, Ki from IC50 by Cheng-Prusoff. As for the experimental part:
The full-length cDNA for human MCHR1 was cloned from a human adult brain cDNA library (Edge Biosystems, Cat. 38356) by standard polymerase chain reaction (PCR) methodology employing the following primers: sense, 5′-GCCACCATGGACCT GGAAGCCTCGCTGC-3′; anti-sense, 5′-[…]-3′. The PCR reaction was performed in a final volume of 50 μl containing 5 μl of a 10× stock solution of PCR buffer, 1 μl of 10 mM dNTP mixture (200 μM final), 2 μl of 50 mM Mg(SO4) (2 mM final), 0.5 μl of 20 μM solutions of each primer (0.2 μM final), 5 μl of template cDNA containing 0.5 ng DNA, 0.5 μl of Platinum Taq High Fidelity DNA polymerase (Gibco Life Technologies) and […] of H2O. PCR amplification was performed on a Perkin Elmer 9600 thermocycler. After denaturation for 90 sec at 94° C., the amplification sequence consisting of 94° C. for 25 sec, 55° C. for 25 sec and 72° C. for 2 min was repeated 30 times, followed by a final elongation step at 72° C. for 10 min. The desired PCR product (1.1 Kb) was confirmed by agarose gel electrophoresis and the band was extracted from the gel by Geneclean (Bio101) following the manufacturer's instructions. Following extraction, the cDNA fragment was cloned into pCR2.1-TOPO plasmid (Invitrogen Corp) to confirm the identity and sequence.
In order to generate cell lines stably expressing MCHR1, the insert was then subcloned into the Xba I and Not I sites of pcDNA(+)-3.1-neomycin (Invitrogen). After purification by Qiagen Maxi-prep kit (QIAGEN, Inc.), the plasmid was transfected by Fugene 6 (Roche Applied Science) into AV12 cells that had been previously transfected with the promiscuous G protein Gα15. The transfected cells were selected by G418 (800 μg/ml) for 10-14 days and single colonies were isolated from culture plates. The G418-resistant colonies were further selected for MCHR1 expression by measuring MCH-stimulated Ca^2+ transients with a fluorometric imaging plate reader (FLIPR, Molecular Devices).
Both the ^125I-MCH binding and functional GTPγ^35S binding assays employed membranes isolated from a clone designated as clone 43. Typically, cells from 20 confluent T225 flasks were processed by washing the monolayers in cold phosphate-buffered saline (PBS), scraping the cells into same and re-suspending the cell pellet in 35 ml of 250 mM Sucrose, 50 mM HEPES, pH 7.5, 1 mM MgCl2, 24 μg/ml DNase I, and protease inhibitors (1 Complete® tablet, per 50 ml of buffer prepared, Roche Diagnostics). Alternatively, greater levels of cells could be generated by adapting cell growth to suspension culture in 20 L stirred vessel bioreactors. After incubation on ice for 5 min, cells were disrupted with 20-25 strokes of a Teflon/Glass homogenizer attached to an overhead motorized stirrer, and the homogenate was centrifuged at 40,000 rpm in Beckman Type 70.1 Ti rotor. The pellets were re-suspended in 250 mM Sucrose, 50 mM HEPES, pH 7.5, 1.5 mM CaCl2, 1 mM MgSO4 and protease inhibitors by Teflon/Glass homogenization to achieve a protein concentration of ˜3-5 mg/ml (Pierce BCA assay with Bovine serum albumin as standard). Aliquots were stored at −70° C.
Binding of compounds to MCHR1 was assessed in a competitive binding assay employing ^125I-MCH, compound and clone 43 membranes. Briefly, assays are carried out in 96-well Costar 3632 white opaque plates in a total volume of 200 μl containing 25 mM HEPES, pH 7.0, 10 mM CaCl2, 2 mg/ml bovine serum albumin, 0.5% dimethyl sulfoxide (DMSO), 5 μg of clone 43 membranes, 200 pM ^125I-MCH (NEN), 0.625 mg/ml of wheat germ agglutinin scintillation proximity assay beads (WGA-SPA beads, Amersham Inc., now GE Healthcare) and a graded dose of test compound. Non-specific binding is assessed in the presence of 0.1 μM unlabeled MCH. Bound ^125I-MCH is determined by placing sealed plates in a Microbeta Trilux (Perkin Elmer Life and Analytical Sciences Inc.) and counting after a 12 hr delay. […]
As for `Cl.Cn1cc(CCN2CCCC2)c2ccc(N3CCc4nc(-c5ccc(Cl)cc5)sc4C3=O)cc21` [Example 47, 2-(4-Chloro-phenyl)-5-[1-methyl-3-(2-pyrrolidin-1-yl-ethyl)-1H-indol-6-yl]-6,7-dihydro-5H-thiazolo[5,4-c]pyridin-4-one hydrochloride], the affinity, expressed as Ki, was 3.16 nM.

Molecule `Cc1cc2cc(N3CCc4nc(-c5ccc(Cl)cc5)sc4C3=O)ccc2n1CCN1CCCC1` [Example 5, 2-(4-Chloro-phenyl)-5-[2-methyl-1-(2-pyrrolidin-1-yl-ethyl)-1H-indol-5-yl]-6,7-dihydro-5H-thiazolo[5,4-c]pyridin-4-one] showed a Ki of 10.2 nM.

In the case of `COc1cc(-n2ccc3nc(-c4ccc(Cl)cc4)sc3c2=O)ccc1OCCN1CC(C)(C)OC(C)(C)C1` [Example 65, 2-(4-Chloro-phenyl)-5-{3-methoxy-4-[2-(2,2,6,6-tetramethyl-morpholin-4-yl)-ethoxy]-phenyl}-5H-thiazolo[5,4-c]pyridine-4-one Hydrochloride], affinity was put at a Ki of 35.8 nM. Compared with the last molecule, the Ki is about 3.5-fold higher.

As for `COc1cc(N2CCc3nc(-c4ccc(Cl)cc4)sc3C2=O)ccc1OCCN(C)C` [Example 33, 2-(4-Chloro-phenyl)-5-[4-(2-dimethylamino-ethoxy)-3-methoxy-phenyl]-6,7-dihydro-5H-thiazolo[5,4-c]pyridin-4-one], the affinity, expressed as Ki, was 5.13 nM. This Ki is about 7-fold lower than that of the molecule before.

On to `O=C1c2sc(-c3ccc(Cl)cc3)nc2CCN1c1ccc2c(c1)ncn2CCN1CCCC1` [Example 2, 2-(4-Chloro-phenyl)-5-[1-(2-pyrrolidin-1-yl-ethyl)-1H-benzoimidazol-5-yl]-6,7-dihydro-5H-thiazolo[5,4-c]pyridin-4-one], for which the affinity corresponds to a Ki of 39.7 nM.

Regarding `COc1cc(N2CCc3nc(-c4ccc(Cl)cc4)sc3C2=O)ccc1OCCN1CCCCC1` [Example 15, 2-(4-Chloro-phenyl)-5-[3-methoxy-4-(2-piperidin-1-yl-ethoxy)-phenyl]-6,7-dihydro-5H-thiazolo[5,4-c]pyridin-4-one], the affinity, expressed as Ki, was 19 nM.

Tested on in another assay: not listed separately
Nature of the assay: In vivo efficacy: 3 day body weight change in diet-induced obese rats. The conditions noted are these: 10 mg/kg oral gavage once a day for 3 days; 3 day cumulative; diet-induced obese male Long-Evans rats. As for the experimental part:
Vehicle consisted of 1% CMC and 0.25% PS-80 in water.
Animals were individually housed in a temperature regulated room (24° C.) with a reverse 12 hour light/dark cycle (dark 10:00/22:00). Water and food (Teklad 95217, Harlan, Wis.) were available ad libitum. Compounds were dosed orally once a day before onset of dark for 3 days. Daily food intake and body weight change were measured for the 3 day period.
On to `Cl.Cn1cc(CCN2CCCC2)c2ccc(N3CCc4nc(-c5ccc(Cl)cc5)sc4C3=O)cc21` [Example 47, 2-(4-Chloro-phenyl)-5-[1-methyl-3-(2-pyrrolidin-1-yl-ethyl)-1H-indol-6-yl]-6,7-dihydro-5H-thiazolo[5,4-c]pyridin-4-one hydrochloride], for which the “Body weight reduction @ 10 mg/Kg versus vehicle control. Data expressed in grams.” value was 7.2 grams.

As to `COc1cc(-n2ccc3nc(-c4ccc(Cl)cc4)sc3c2=O)ccc1CCCN1CCCC1.Cl` [Example 52, 2-(4-Chloro-phenyl)-5-[3-methoxy-4-(3-pyrrolidin-1-yl-propyl)-phenyl]-5H-thiazolo[5,4-c]pyridin-4-one hydrochloride], the “Body weight reduction @ 10 mg/Kg versus vehicle control. Data expressed in grams.” value turned out to be 9.6 grams.

Take `COc1cc(-n2ccc3nc(-c4ccc(Cl)cc4)sc3c2=O)ccc1OCc1cncn1C` [Example 42]: the “Body weight reduction @ 10 mg/Kg versus vehicle control. Data expressed in grams.” value came out at 1.7 grams.

Broadly, the Ki is a dissociation constant, usually derived from enzyme kinetics or from competition with a known ligand. Low readings indicate tighter binding, high ones weaker binding.
